The text below walks through data of ChEMBL document CHEMBL1201862, “PubChem BioAssay data set” (2004).

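96-well plates; 48 h exposure; 5 concentrations. Endpoints by linear interpolation between flanking doses. Not reached: highest tested concentration assigned. Abbreviation: GI50, concentration required for 50% inhibition of growth.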 The source made the active and inactive calls. No stated cut-off is given here; in the data, active = GI50 up to about 1.1 µM and inactive = higher. Where only a bound is given, the exact number is not on record here.

Among the test systems are LXFL 529; DLD-1; M19-MEL; RXF 631; KM-20L2; SNB-78; HOP-18; XF498; DMS-273.
What all share (experiment): NCI anticancer screen, dose series, 48 h

Turning to `Cc1ccc2[nH]c(Sc3c([N+](=O)[O-])ncn3C)nc2c1`, the GI50 in the assay on LXFL 529 is > 10 µM (inactive); with DLD-1, 20.4 µM (inactive); with M19-MEL, 18.5 µM (inactive); with RXF 631, 17.2 µM (inactive); with KM-20L2 it was 25.6 µM (inactive); in the assay with SNB-78, 23.2 µM (inactive). Besides, the GI50 with HOP-18 was 17.5 µM (inactive); with XF498, 586 nM (active); in the assay on DMS-273, 12.2 µM (inactive).
